The nature of series [1]: Risk categorization of statins for coadministration with encorafenib. Particulars: qualitative, from metabolic and transporter profile.
The subject of series [2] is CYP2B6. In kind it is in vivo, Human.
For another series, the system named is CYP2D6. Conditions: cited from earlier work.
Series [3] concerns CYP2B6. Particulars: in vitro hepatocyte assay, clinically relevant plasma concentrations; cited from earlier work.
In a further series the test system is CYP3A4. Particulars: cited from earlier work.
In a further series the test system is OATP1B1/3. Conditions: in vitro, potent inhibitor; cited from earlier work.
In series [4] the test system is BCRP. Particulars: in vitro, weak inhibitor; cited from earlier work.
Series [5] can be described thus: Phase 1 DDI study: plasma PK of encorafenib. The format is in vivo. Conditions: human, oral, GM (CV%); for AUC(0-t): AUClast.
In series [6] the test system is CYP2B6. Particulars: in vitro; cited from earlier work.
Series [7] relates to OATP1B1, OATP1B3, and BCRP. In kind it is in vivo, Human. Particulars: phase 1 study and exploratory CP-I analysis.
The test system of the next series is CYP2C19. Conditions: cited from earlier work.
The conditions of series [8]: cited from earlier work.
In series [9] the test system is BCRP. Particulars: cited from earlier work.
The format of series [10] is in vivo, Human. Particulars: single oral administrations on days −7, 1 and 14.
Another series relates to CYP2B6 and CYP3A4. Conditions: strong inducer of CYP2B6 and CYP3A4; cited from earlier work.
The subject of series [11] is OATP1B1. Particulars: strong inhibitor of OATP1B1; cited from earlier work.
In series [12] the target is T1, OATP1B1 (Homo sapiens, UniProt Q9Y6L6).
T1 sequence (Q9Y6L6 1-691): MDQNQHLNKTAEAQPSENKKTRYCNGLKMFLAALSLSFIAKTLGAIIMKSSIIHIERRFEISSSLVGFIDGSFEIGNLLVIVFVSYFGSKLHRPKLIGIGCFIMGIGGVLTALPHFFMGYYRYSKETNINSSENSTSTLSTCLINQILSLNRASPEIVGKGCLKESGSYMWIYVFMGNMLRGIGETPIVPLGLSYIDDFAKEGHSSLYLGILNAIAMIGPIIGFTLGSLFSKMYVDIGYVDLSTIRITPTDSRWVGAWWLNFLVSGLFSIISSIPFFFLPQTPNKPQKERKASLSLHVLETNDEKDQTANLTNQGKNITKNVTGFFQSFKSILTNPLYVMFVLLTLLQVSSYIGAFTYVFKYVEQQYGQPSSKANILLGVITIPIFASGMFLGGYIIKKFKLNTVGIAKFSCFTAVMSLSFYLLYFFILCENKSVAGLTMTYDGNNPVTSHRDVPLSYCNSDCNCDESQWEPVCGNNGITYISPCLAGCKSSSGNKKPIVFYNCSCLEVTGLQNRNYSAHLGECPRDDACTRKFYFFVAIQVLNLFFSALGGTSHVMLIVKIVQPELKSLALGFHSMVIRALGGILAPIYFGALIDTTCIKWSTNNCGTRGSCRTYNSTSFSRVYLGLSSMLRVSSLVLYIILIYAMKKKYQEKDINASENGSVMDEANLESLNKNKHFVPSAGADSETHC
The experiment in a line: Maximum fold change of plasma CP-I in phase 3 safety lead-in participants. In kind it is in vivo. Particulars: SLI phase, encorafenib 300 mg QD + cetuximab.

Read-outs that look alike come from different tables or passages of the source.

As usually defined, the AUC(0-t) is the area under the concentration-time curve up to a stated or last time point. Read a high AUC(0-t) as high exposure. By Cmax is commonly meant the peak of the concentration-time curve. For orientation: Tmax means the time at which the peak concentration occurs.

With `CC(C)c1c(C(=O)Nc2ccccc2)c(-c2ccccc2)c(-c2ccc(F)cc2)n1CC[C@@H](O)C[C@@H](O)CC(=O)O` [Atorvastatin], the “Risk category following coadministration with encorafenib” value in series [1] is “at risk of loss of efficacy”.

Regarding `CC(NC(C)(C)C)C(=O)c1cccc(Cl)c1` (centres unmarked) [Bupropion, bupropion], the “Decrease in AUClast compared with administration on its own” value with CYP2B6 [2] (following repeated doses of encorafenib and binimetinib) is 26%; in the series on CYP2B6 [2] (following single dose of encorafenib and binimetinib) it was 23%.

For `COC(=O)N[C@@H](C)CNc1nccc(-c2cn(C(C)C)nc2-c2cc(Cl)cc(NS(C)(=O)=O)c2F)n1` [Encorafenib, encorafenib], the Share of metabolism in the series with CYP2D6 is recorded as 1%; with CYP3A4 it was 83%; in the series on CYP2C19, 16%. Further, in the series on CYP2B6 [2] (bupropion probe, after a single dose of encorafenib), the “Clinical CYP2B6 inhibition (conclusion)” value is on record as “does not act as an inhibitor of CYP2B6”. For the same compound, in the series with CYP2B6 [2] (bupropion probe, steady-state encorafenib), the “Clinical CYP2B6 induction (conclusion)” value is “likely not a clinically relevant inducer of CYP2B6”. The “R3 values (induction)” value with CYP2B6 [3] was under 0.9. Further, the “R values (inhibition)” value in the series with OATP1B1/3 and in the series on BCRP [4] was at least 1.1 in each case. Also, the AUC(0-t) in series [5] (encorafenib single dose (day 1)) was found to be 25900 ng·h/mL; in [5] (encorafenib steady state (day 14)) it was 13100 ng·h/mL. In [5] (Cmax, encorafenib steady state (day 14), n=10), this compound registered a Cmax of 2940 ng/mL. Moreover, in the series on CYP2B6 [6], the “Unbound R1 value (reversible inhibition)” value is listed as 3.1. The “Clinical BCRP inhibition (conclusion)” value in series [7] is reported as “likely an inhibitor of BCRP”. Also, in [7], the “Clinical OATP1B1/3 inhibition (conclusion)” value was “may also inhibit OATP1B1/3 to a lesser extent”. Moreover, the “Steady-state exposure lower compared with exposure following a single dose” value in series [8] (autoinduction of CYP3A4) was “approximately 50%”. Besides, the Estimated bioavailability entry in series [8] (oral, no reference given) is reported as “at least 86%”. Besides, the “Time to peak concentrations” value in series [8] (oral, no reference given) is given as at most 2 h.

`C[C@H]1NC(C)(C)CO[C@]1(O)c1cccc(Cl)c1` [Hydroxybupropion, hydroxybupropion]: in the series with CYP2B6 [2] (following a single dose of encorafenib and binimetinib), the “Change in AUClast” value is recorded as “not changed”. In the series on CYP2B6 [2] (with repeated doses of encorafenib and binimetinib), the “Increase in AUClast” value is 48%.

For `CC[C@H](C)C(=O)O[C@H]1C[C@@H](C)C=C2C=C[C@H](C)[C@H](CC[C@@H]3C[C@@H](O)CC(=O)O3)[C@H]21` [Lovastatin], the “Risk category following coadministration with encorafenib” value in series [1] is listed as “at risk of loss of efficacy”.

Consider `O=C(O)C[C@H](O)C[C@H](O)/C=C/c1c(C2CC2)nc2ccccc2c1-c1ccc(F)cc1` [Pitavastatin], for which the “Risk category following coadministration with encorafenib” value in series [1] was “highest risk of increased exposure”.

As for `CC[C@H](C)C(=O)O[C@H]1C[C@H](O)C=C2C=C[C@H](C)[C@H](CC[C@@H](O)C[C@@H](O)CC(=O)O)[C@H]21` [Pravastatin], the “Risk category following coadministration with encorafenib” value in series [1] is recorded as “least likely to be affected”.

In the case of `CC(C)c1nc(N(C)S(C)(=O)=O)nc(-c2ccc(F)cc2)c1/C=C/[C@@H](O)C[C@@H](O)CC(=O)O` [Rosuvastatin, rosuvastatin], in the series on BCRP [9], the “Theoretical maximum fold-change in exposure based on BCRP alone” value was 2 fold. Also, the “Tmax” value in series [10] amounted to 2 h. Further, in series [1], the “Risk category following coadministration with encorafenib” value is on record as “highest risk of increased exposure”.

Take `NC(=O)N1c2ccccc2C=Cc2ccccc21` [carbamazepine]: in the series on CYP2B6 and CYP3A4, the “Effect of treatment on bupropion and hydroxybupropion” value is “substantial decrease in bupropion and increase in hydroxybupropion”.

With `CO[C@H]1/C=C/O[C@@]2(C)Oc3c(C)c(O)c4c(O)c(c(/C=N/N5CCN(C)CC5)c(O)c4c3C2=O)NC(=O)/C(C)=C\C=C\[C@H](C)[C@H](O)[C@@H](C)[C@@H](O)[C@@H](C)[C@H](OC(C)=O)[C@@H]1C` [rifampin], in the series on OATP1B1 [11], the “Plasma CP-I maximum fold-change” value is recorded as “approximately 6 fold”.

Turning to Coproporphyrin I [CP-I], the “Observed maximum fold change in CP-I concentrations” value on OATP1B1 [12] (C1D1 (single dose), CRC patients) is listed as 1.4 fold; on OATP1B1 [12] (C2D1) it was 1.2 fold.
